Values quoted from earlier work, collected in patent publication US20100273749A1, “Method for Treating Dry-Eye Syndrome” (priority 2006, published 2010).

System: ACAT
Conditions: several animal studies, nonselective ACAT inhibitors

| Structure (SMILES) | reduction of atherosclerotic plaques |
| --- | --- |
| CC(C)c1cc(C(C)C)c(CC(=O)NS(=O)(=O)Oc2c(C(C)C)cccc2C(C)C)c(C(C)C)c1 [avasimibe] | promising reduction of atherosclerotic plaques |
| CCCCCCCCN1CCc2c(C)c(CC(=O)O)c(C)c(NC(=O)C(C)(C)C)c21 [pactimibe] | promising reduction of atherosclerotic plaques |
